Like-named read-outs stand apart in the source and are kept apart here. Ends that are not written are not given here.

In data set [1] the test system is Mycobacterium smegmatis ATCC 9341. The format is cell-based. Here is the method: A filter paper disc (8 mm, Toyo Roshi Kaisha, Japan) saturated with antimicrobial sample (40 µL) was placed on the surface of petri dish (87 mm × 15 mm) containing Mueller Hinton Agar (MHA). The plate was incubated at 37 °C, and a clear zone of inhibition surrounding the paper disc was measured in millimeter (mm). […] The titer of the antimicrobial substance solution, in AU/mL, was calculated as (1000/d) D, where D was the dilution factor, and d was the dose, the amount of antimicrobial substance solution added to each spot. AU and the zone of inhibition were measured against Mycobacterium smegmatis ATCC 9341 while optimizing CBSYD1 media.

In a further data set the test system is VRE 5. The format is cell-based, vancomycin-resistant enterococci. The protocol: (§1) The minimal inhibitory concentration (MIC) was determined according to the method described by Weigand et al. ([2008]).
A further data set relates to VRE 2. In kind it is cell-based, vancomycin-resistant enterococci. Here is the method:
as §1

The subject of data set [2] is Alcaligenes faecalis ATCC 1004. The format is cell-based. Here is the method: as §1
The subject of data set [3] is Micrococcus luteus ATCC 9341. In kind it is cell-based. Here is the method: as §1
The subject of data set [4] is Pseudomonas aeruginosa KCTC 1637. In kind it is cell-based. The protocol:
as §1

In data set [5] the test system is Escherichia coli KCTC 1923. In kind it is cell-based. The protocol:
as §1

Data set [6] has as its system Mycobacterium smegmatis ATCC 9341. In kind it is cell-based. The protocol: as §1
This is another data set of the same source.

A further data set relates to VRSA. In kind it is cell-based. Here is the method:
as §1

Data set [7] relates to Bacillus subtilis ATCC 6633. In kind it is cell-based. Here is the method: as §1
Data set [8] deals with Salmonella Typhimurium KCTC 1925. In kind it is cell-based. The protocol: as §1
Data set [9] concerns Enterococcus faecalis ATCC 29212. In kind it is cell-based. Here is the method:
as §1

The subject of data set [10] is Escherichia coli KCTC1923 (E. coli), methicillin-resistant Staphylococcus aureus B15 (MRSA), and vancomycin-resistant enterococci (VRE). The format is cell-based. Here is the method: as §1
The test system of another data set is E. coli spheroplasts. The format is cell-based, Escherichia coli. As to conditions: 2 h, 40 µg/mL. The protocol:
Spheroplasts are gram-negative bacteria in which nearly all of the outer membrane (OM) has been removed. Lysozyme destroys the peptide bonds in peptidoglycan and weakens the cell wall. E. coli was grown in 10 mL of MHB, incubated overnight at 37 °C on a shaker at 180 rpm. Each culture (100 µL) was used to inoculate 20 mL of fresh media and incubated at 37 °C for 2 h at 180 rpm. Spheroplasts were prepared as described by Kikuchi et al. ([2015]).
Re-suspended spheroplasts and whole cells suspension were adjusted to OD 570 nm of 0.2 and 100 µL of each was added to a clear, flat-bottomed microtiter plate in duplicate wells. Ten microliters of YD1 in 10 mM Tris–HCl buffer (pH 7) was added to test wells for both preparations (spheroplasts and whole cells) at the indicated different final concentrations. To the control, 10 µL of 10 mM Tris–HCl buffer (pH 7) was added in lieu of YD1. The percentage of intact spheroplasts or whole cells was calculated as: =Sample OD at time X/Sample OD at time0×100
Decrease in the OD of the suspension after addition of a membrane-active agent indicates lysis of spheroplasts.

The subject of another data set is protease enzymes. As to conditions: enzymes at 1 and 2 mg/mL. Here is the method: (§2) The thermal stability of YD1 samples was determined by exposure to 20, 40, 60, 80 and 100 °C for 30 min and to 121 °C/105 kPa for 15 min before analyzing the residual activity. Similarly, pH stability was determined over a range of pH 2–10 using 1 M NaOH or HCl. The effect of protease enzyme on YD1 stability was determined at two different enzyme concentrations (1 and 2 mg/mL).

The procedure of data set [11]: as §2
Another data set relates to MRSA B15. The format is cell-based, methicillin-resistant Staphylococcus aureus. As to conditions: method of Wiegand et al. 2008. Here is the method: as §1
Data set [12] concerns Staphylococcus aureus KCTC 1928. Nature of the data set: MIC determination. The format is cell-based. As to conditions: method of Wiegand et al. 2008. Here is the method: as §1

For orientation: MIC means the smallest concentration in the dilution series that meets the test's criterion for growth inhibition. Low readings indicate greater potency, high ones weaker potency. In the case of “APKGVQGPNG [YD1, Ala-Pro-Lys-Gly-Val-Gln-Gly-Pro-Asn-Gly]”, the “clear zone of inhibition” value in data set [1] is “up to 16 mm”. Moreover, the MIC was 64 µg/mL in the data set with VRE 5; 64 µg/mL in the data set on VRE 2; more than 128 µg/mL in [2] (ATCC 1004); 64 µg/mL in data set [3] (ATCC 9341); 16 µg/mL in [4] (KCTC 1637); 8 µg/mL in data set [5] (KCTC 1923). For the same substance, the MIC was 8 µg/mL in [6] (ATCC 9341); more than 128 µg/mL against VRSA; 64 µg/mL in [7] (ATCC 6633); 32 µg/mL in [8] (KCTC 1925); 64 µg/mL in [9] (ATCC 29212). In addition, in data set [10], the “MIC (range over E. coli KCTC1923, MRSA B15 and VRE)” value lay in the range of 8 to 64 µg/mL. Besides, the intact surviving spheroplasts with E. coli spheroplasts was more than 88%. Besides, in the data set with protease enzymes, the “effect of protease enzymes on antimicrobial activity” value was “failed to alter”. In addition, the “thermal stability (activity)” value in data set [11] (at or above 100 °C (100 °C 30 min; 121 °C/105 kPa 15 min)) was “decreased sharply”. For the same substance, the “pH stability (residual activity)” value in data set [11] (pH 4–9, tested pH 2–10 with 1 M NaOH or HCl) is given as “completely stable”. Also, the “thermal stability (residual activity)” value in data set [11] (up to 80 °C, 30 min exposure) is reported as “completely stable”.
Turning to Bacitracin [reference compound], the MIC was 64 µg/mL in the data set on MRSA B15; more than 128 µg/mL in [12]; 64 µg/mL against VRE 5 (VRE 5, method of Wiegand et al. 2008); 32 µg/mL against VRE 2 (VRE 2, method of Wiegand et al. 2008); more than 128 µg/mL in [2] (Alcaligenes faecalis ATCC 1004, method of Wiegand et al. 2008); 64 µg/mL in data set [3] (Micrococcus luteus ATCC 9341, method of Wiegand et al. 2008). Moreover, the MIC is more than 128 µg/mL in data set [4] (Pseudomonas aeruginosa KCTC 1637, method of Wiegand et al. 2008); more than 128 µg/mL in [5] (Escherichia coli KCTC 1923, method of Wiegand et al. 2008); more than 128 µg/mL in data set [6] (Mycobacterium smegmatis ATCC 9341, method of Wiegand et al. 2008); more than 128 µg/mL with VRSA (VRSA, method of Wiegand et al. 2008); 64 µg/mL in data set [7] (Bacillus subtilis ATCC 6633, method of Wiegand et al. 2008); 64 µg/mL in data set [8] (Salmonella Typhimurium KCTC 1925, method of Wiegand et al. 2008). Also, in [9] (Enterococcus faecalis ATCC 29212, method of Wiegand et al. 2008), the MIC turned out to be 2 µg/mL.

Values taken from article PMC5209312, “Glycin-rich antimicrobial peptide YD1 from B. amyloliquefaciens, induced morphological alteration in and showed affinity for plasmid DNA of E. coli” (AMB Express, 2017).
